# Measured values: patent US8399447B2, “Metal triangulo compound and methods of using the same” (National University of Singapore, priority 2007, dated 2013)
# Entries after “also recorded” stand apart in the source; their conditions may differ.
# Tests used:
# cells = assay: Intracellular pH with BCECF; format: cell-based; settings: FIG. 5C
# Protocol: (§1) (A) Jurkat cells and (B) HL-60 cells (2×10^6) were incubated with 12.5 and 25 μM [Os3(CO)10(μ-H)(μ-S)C9H6N] and […] O2^− was measured by a lucigenine-based chemiluminescence assay (C) A, cytosolic pH was determined with the pH-sensitive probe 2′,7′-bis(2-carboxyethyl)-5,6-carboxy-fluorescein.
# Intracellular (pHi) was measured by loading cells with […] dye BCECF (Sigma). Briefly, cells (1×10^6) before or after exposure (2-12 h at 37° C.) to [Os3(CO)10(μ-H)(μ-S)C9H6N] was washed once with HBSS, resuspended in 0.1 ml of HBSS, and loaded with […] of 1 mM BCECF at 37° C. for 30 min in the dark. Cells were then resuspended in 0.5 ml of HBSS and analyzed using a Coulter Epics Elite ESP (Coulter, Hialeah, Fla.) flow cytometer with the excitation set at 488 nm. A minimum of 10,000 events was analyzed, and the ratio of BCECF fluorescence at 525 and 610 was used to obtain intracellular pH from a pH calibration curve. […] Immediately before flow cytometry, cells were loaded with […] nigericin (1 mM stock in absolute alcohol; Sigma), and fluorescence ratio measurements (525 nm/610 nm) of cells in nigericin-containing buffers of a range of pH were then used to relate histogram channel numbers to ipH. […]
# HL-60 cells [1] = assay: Flow cytometric analysis of intracellular H2O2 (DCFH-DA); format: cell-based, human
# Protocol: Cells were then loaded with DCFH-DA (5 μM) for 15 minutes and the amount of intracellular H2O2 generated was indicated by the shift in fluorescence as detected by flow cytometry.
# Intracellular H2O2 was determined by staining with 2,7-dichloro-fluorescein diacetate (Molecular Probes, Eugene, Oreg.), which is oxidised to dichlorofluorescein by H2O2 described elsewhere (Hirpara, J. L., et al., J Biol. Chem. (2001) 276, 514-521). In brief, HL-60 cells were exposed to […] [Os3(CO)10(μ-H)(μ-S)C9H6N] 4 h, loaded with […] 2′,7′-dichlorofluorescein diacetate at 37° C. for […], and analysed by flow cytometry (Coulter Epics Elite ESP; excitation 488 nm). Catalase (1000 units/ml) was used to scavenge intracellular H2O2 before addition of the drugs and flow cytometric analysis of H2O2 for 4 h, followed by flow cytometry for H2O2. At least 10,000 events were analysed.
# caspases 2, 8, 9, and 3 [2] = assay: Caspase activities (AFC substrates), Jurkat; format: cell-based; settings: Jurkat cells, within 6 hours
# Protocol: (§2) Activities of caspases 8, 2, 9, and 3 were determined in lysates of [Os3(CO)10(μ-H)(μ-S)C9H6N]-treated (A) Jurkat and (B) HL 60 cells and shown as fold increase over untreated cells.
# (§3) Caspases 2, 3, 8, and 9 activities were assayed by using AFC-conjugated substrates supplied by Bio-Rad. Cells (1×10^6 cells/ml) were incubated with the drugs over a time course, washed twice with 1×PBS, resuspended in 50 μl of chilled cell lysis buffer (provided by the supplier), and incubated on ice for 10 min. 50 μl of 2× reaction buffer (10 mM HEPES, 2 mM EDTA, 10 mM KCl, 1.5 mM MgCl2, 10 mM dithiothreitol) and […] of the fluorogenic caspase-specific (VDVAD-AFC for caspase 2, DEVD-AFC for caspase 3, IETD-AFC for caspase 8, and LEHDAFC for caspase 9) were added to each sample and incubated at 37° C. for 1 h. Protease activity was determined by the relative fluorescence intensity at 505 nm following excitation at 400 nm using a spectrofluorimeter (Luminescence Spectrometer LS50B, PerkinElmer Life Sciences, Buckinghamshire, United Kingdom).
# Akt/PKB = assay: Western blot of total Akt/PKB and Akt/PKB phosphorylation (Ser473); format: cell-based, human
# Protocol: The capability of the varying doses of [Os3(CO)10(μ-H)(μ-S)C9H6N] to dephosphorylate and deactivate Akt was shown by Western blot. HL 60 cells (2×10^6) were incubated with varying doses of [Os3(CO)10(μ-H)(μ-S)C9H6N] (12.5 and 25 μM) for 2, 4, and 6 hours and cell lysates were obtained for Western blot analysis of the Akt phosphorylation status.
# HL-60 cells (2×10^6) were plated in a 12 well plate followed by exposure to the drug. Cells were harvested, washed once with PBS, and then lysed with cell lysis buffer [150 mmol/L NaCl, Tris-HCl (pH 7.4), 1% NP40]. Cell lysate (200 μg) was then electrophoresed on an 8% acrylamide gel. Antibodies were used to probe for total Akt and phosphorylated Akt/PKB at the Ser473 position (Cell Signaling, Beverly, Mass.). Protein blots were probed with anti β-actin (Sigma-Aldrich, St. Louis, Mo.) to check for equal protein loading).
# HL-60 cells [3] = assay: DNA fragmentation by propidium iodide flow cytometry, HL-60; format: cell-based, human; settings: HL-60, 12.5 and 25 μM, 24 hours
# Protocol: FIG. 4 depicts the detection of DNA Fragmentation. DNA cleavage in [Os3(CO)10(μ-H)(μ-S)C9H6N]-treated tumour cells was assessed using flow cytometric analysis. HL-60 cells were treated with 12.5 and 25 μM [Os3(CO)10(pt-H)(μ-S)C9H6N] for 24 hours, immediately fixed in ethanol, and stained with PI for DNA content analysis. SubG1 population indicates subdiplod DNA content indicative of apoptotic DNA fragmentation. Data shown are representative of at least three independent experiments.
# For cellular DNA content determination, 1×10^6 cells/ml from each cell line were treated with [Os3(CO)10(μ-H)(μ-S)C9H6N]. After treatment, cells were washed twice with 1×PBS+1 FBS. Sample preparation and staining with PI for DNA content were performed as described elsewhere (32). […]
# Fixed cells were left at 4° C. for 30 min, centrifuged at 1000×g for 5 min and washed once with 1×PBS+1% FBS. […] Stained cells were analyzed by flow cytometry with the excitation set at 488 nm and the emission set at 610 nm (red).
# The ability of the cells to scatter light in a forward direction (FS) correlates with cell volume. Os drug-treated cells were analysed for changes in the intensity of FS as compared to untreated control cells. A total of 10,000 cells per sample were studied and data were analyzed by the WINMDI software.
# Bax = assay: Western blot of Bax sub-cellular localization; format: cell-based, human; settings: HL60 cells, 12.5 and 25 μM, 12 hours
# Protocol: (§4) FIG. 12 illustrates that [Os3(CO)10(μ-H)(2-S)C9H6N] induces apoptosis through the mitochondrial pathway. HL60 cells (30×10^6) were treated with 12.5 (A) and 25 μM (B) of [Os3(CO)10(μ-H)(μ-S)C9H6N] treated for 12 hours and cytosolic and mitochondria fractions were subjected to SDS-PAGE electrophoresis, transferred to PVDF membrane, and probe with anti-Cyt.C and anti-Bax antibodies (C). Anti-βactin antibody was used to assess equal loading of samples.
# For analysis of poly(ADP-ribose) polymerase cleavage, lysates from 2×10^6 cells were prepared in sample buffer [50 mmol/L Tris/HCl (pH 6.8), 6 mol/L urea, 3% SDS, 0.003% Bromphenol Blue, and 6% β-mercaptoethanol] and subjected to Western blot analysis using anti-poly(ADP-ribose) polymerase (clone C-2-10, PharMingen) as described (Pervaiz et al., 199, supra). For Western blot analysis of Bax, cells (2×10^6) were lysed by adding […] of chilled 1× radioimmunoprecipitation assay buffer lysis buffer, and 50 μg of protein were subjected to 15% PAGE and transferred to polyvinylidene difluoride as above. Alternatively for analysis of Bax dimerization/multimerization, cell lysates were subjected to 10% native gel electrophoresis. […] Chemiluminescence was detected as described above.
# cytochrome C = assay: Western blotting for cytochrome C release; format: cell-based, human; settings: HL60 cells, 12.5 and 25 μM, 12 hours
# Protocol: as §4
# Cytochrome c release was assessed by Western blot analysis of cytosolic extracts from 30×10^6 cells as described previously (Hirpara, J. L. et al., J. Biol. Chem. (2001) 276, 514-521, incorporated herein by reference in its entirety; Pervaiz et al., 1999, supra). Cytosolic fractions were obtained and analysed by Western blotting.
# Briefly, cells were washed twice with ice-cold PBS, pH 7.4, followed by centrifugation at 200×g for 5 minutes. The cell pellet was then resuspended in 600 μL of extraction buffer, containing 200 mmol/L mannitol, 68 mmol/L sucrose, 50 mmol/L PIPES-KOH, pH 7.4, 50 mmol/L KCl, 5 mmol/L EGTA, 2 mmol/L MgCl2, 1 mmol/L DTT, and protease inhibitors (Complete Cocktail; Boehringer Mannheim, Mannheim, Germany). […] Signal was detected by the Super Signal Substrate Western Blotting kit (Pierce).
# HL-60 cells [4] = assay: Intracellular superoxide, lucigenin chemiluminescence, HL-60; format: cell-based, human; settings: 12.5 and 25 μM, 2 h and 4 h (FIG. 5B)
# Protocol: as §1
# (§5) A lucigenin-based chemiluminescence assay is routinely used in the laboratory as detailed in Clement and Pervaiz (Pervaiz S, Clement M V, Methods Enzymol. (2002) 352, 150-159). In brief, chemiluminescence was monitored using a Berthold Sirius Luminometer (Berthold Detection Systems GmbH, Bleichstralβe/Pforzheim, Germany). Data are described as relative light units/mg of protein (RLU/mg protein). Protein concentration was determined using the Coomassie Plus protein assay reagent from Pierce (Pierce Chemical Company, Rockford, Ill., USA) as detailed by the manufacturer.
# (§6) This example illustrates determining whether and to what extent apoptosis induced by an osmium triangulo compound of the present invention is accompanied by an increase in intracellular ROS production. Cells were exposed to [Os3(CO)10(μ-H)(μ-S)C9H6N] for 2 h and 4 h and intracellular O2^− production was measured by a lucigenin-based chemiluminescence assay.
# death receptor CD95 = assay: Surface expression of CD95 by flow cytometry; format: cell-based, human; set-up: dose or concentration left out as unconfirmed; settings: HL60 cells, 12 hours
# Protocol: FIG. 8 depicts the upregulation of Cd95 by [Os3(CO)10(μ-H)(μ-S)C9H6N] in tumour cells. HL60 cells were treated with […] [Os3(CO)10(μ-H)(μ-S)C9H6N] for 12 hours and surface expression of CD95 was analysed by flow cytometry as described in Materials and Methods. The shaded histograms show unstained cells. Mouse IgG1k was used as an isotype control. At least 10,000 events were counted, and data shown are representative of at least three separate experiments.
# caspases 2, 8, 9, and 3 [5] = assay: Caspase activities (AFC substrates), HL60; format: cell-based, human; settings: HL60 cells, within 6 hours; more pronounced than in Jurkat
# Protocol: as §2, §3
# jurkat cells = assay: Intracellular superoxide, lucigenin chemiluminescence, Jurkat; format: cell-based; settings: 12.5 and 25 μM, 2 h and 4 h (FIG. 5A)
# Protocol: as §1, §5, §6
# [6] = tested on: Jurkat Neo and Jurkat BCL2 cells; assay: DNA fragmentation by PI, Jurkat Neo and Jurkat BCL2; format: cell-based; settings: 12.5 and 25 μM, 18 hours; for DNA fragmentation / apoptosis with Bcl-2 overexpression: BCl2 overexpressing jurkat cells
# Protocol: Jurkat Neo and Jurkat BCL2 cells were treated with 12.5 and 25 μM of [Os3(CO)10(μ-H)(μ-S)C9H6N] for 18 hours, immediately fixed in ethanol and stained with PI for DNA content analysis. Sub-G1 population indicates subdiploid DNA content indicative of apoptotic. The DNA fragmentation induced by [Os3(CO)10(μ-H)(μ-S)C9H6N] is inhibited in BCl2 overexpressing jurkat cells. Data shown are representative of at least three independent experiments.
# For cellular DNA content determination, 1×10^6 cells/ml from each cell line were treated with [Os3(CO)10(μ-H)(μ-S)C9H6N]. After treatment, cells were washed twice with 1×PBS+1 FBS. Sample preparation and staining with PI for DNA content were performed as described elsewhere (32). Briefly, cell pellets were resuspended in 0.5 ml of 1×PBS+1% FBS and immediately fixed by adding 5 ml of 70% ethanol while vortexing to avoid clumping.
# Fixed cells were left at 4° C. for 30 min, centrifuged at 1000×g for 5 min and washed once with 1×PBS+1% FBS. Cell pellets were then suspended in 0.5 ml of PI/RNAse. A solution prepared by adding 1/50 volume of PI stock and 1/40 volume of RNAse. A stock to 1×PBS+1% FBS and incubated for 30 min at 37° C. Stained cells were analyzed by flow cytometry with the excitation set at 488 nm and the emission set at 610 nm (red).
substance,measurement,setting,value
[Os3(CO)10(μ-H)(μ-S)C9H6N],cytosolic pH,cells,significant drop
same,intracellular H2O2,"HL-60 cells [1]; HL-60, 12.5 and 25 μM, within 4 hours",significant surge
same,intracellular H2O2 in presence of catalase,"HL-60 cells [1]; HL-60, catalase 1000 U/ml",completely blocked
same,"activation of caspases 2, 8, 9 and 3","caspases 2, 8, 9, and 3 [2]",induces caspase activation
same,total Akt signal,"Akt/PKB; HL-60, 12.5 and 25 μM, 2, 4 and 6 hours",remained almost unchanged
same,Akt phosphorylation,"Akt/PKB; HL-60, 12.5 and 25 μM, within 4 to 6 hours of exposure",down regulation; also recorded: strong inhibition
same,percentage of sub-diploid DNA (sub-G1 fraction),HL-60 cells [3],increased significantly
same,sub-cellular localization of Bax,Bax,no significant change
same,cytochrome C release,cytochrome C,occurred in a dose dependent manner
same,intracellular O2− production,HL-60 cells [4],early increase
same,surface expression of CD95,death receptor CD95,upregulation; also recorded: significant increase
same,"activation of caspases 2, 8, 9 and 3","caspases 2, 8, 9, and 3 [5]",induces caspase activation
same,intracellular O2− production,jurkat cells,early increase
same,DNA fragmentation / apoptosis with Bcl-2 overexpression,[6],inhibited
same,DNA fragmentation / apoptosis with Bcl-2 overexpression,[6]; listed as [Os3(CO)10(μ-H)(μ-S)C9H9N],blocked
same,DNA fragmentation (sub-G1),[6]; Jurkat Neo,induces DNA fragmentation
